From article PMC4648050, “Discovery of Inhibitors of Trypanosoma brucei by Phenotypic Screening of a Focused Protein Kinase Library” (Chemmedchem, 2015) come the findings set out here.

Molecules are shown by their SMILES.

One series has as its target HIPK2 (Homo sapiens, UniProt Q9H2X6). Nature of the series: Kinase panel: HIPK2. It is filed as biochemical, human/mammalian. The conditions noted are these: compound at 10 μM, read-out: % of activity respect of the control. On the procedure: (§1) The DDU kinase-focused compound set contains lead-like scaffolds that are designed to target protein kinases; they have kinase hinge binding motifs. Four of the 1H-imidazopyrazinones were screened against a human/mammalian kinase panel at the University of Dundee (http://www.kinase-screen.mrc.ac.uk) at a concentration of 10 μM. At the time of testing the panel contained 79 mammalian kinases selected to provide a broad coverage of the mammalian kinome (∼500 kinases in the human genome).[3] None of the compounds were active against any of the kinases at 10 μM.

Another series addresses p38a MAPK (Homo sapiens, UniProt Q16539). Nature of the series: Kinase panel: p38a MAPK. It is filed as biochemical, human/mammalian. The conditions noted are these: compound at 10 μM, read-out: % of activity respect of the control. The method, then:
as §1

The target of another series is PLK1 (Homo sapiens, UniProt P53350). Nature of the series: Kinase panel: PLK1. It is filed as biochemical, human/mammalian. The conditions noted are these: compound at 10 μM, read-out: % of activity respect of the control. The method, then:
as §1

The next series concerns PHK. Nature of the series: Kinase panel: PHK. It is filed as biochemical, human/mammalian. The conditions noted are these: compound at 10 μM. The method, then:
as §1

The target of the next series is PAK4 (Homo sapiens, UniProt O96013). Put plainly: Kinase panel: PAK4. The series is classed as biochemical, human/mammalian. The note with it: compound at 10 μM, read-out: % of activity respect of the control. The method, then: as §1
Chain of PAK4 (O96013 whole entry): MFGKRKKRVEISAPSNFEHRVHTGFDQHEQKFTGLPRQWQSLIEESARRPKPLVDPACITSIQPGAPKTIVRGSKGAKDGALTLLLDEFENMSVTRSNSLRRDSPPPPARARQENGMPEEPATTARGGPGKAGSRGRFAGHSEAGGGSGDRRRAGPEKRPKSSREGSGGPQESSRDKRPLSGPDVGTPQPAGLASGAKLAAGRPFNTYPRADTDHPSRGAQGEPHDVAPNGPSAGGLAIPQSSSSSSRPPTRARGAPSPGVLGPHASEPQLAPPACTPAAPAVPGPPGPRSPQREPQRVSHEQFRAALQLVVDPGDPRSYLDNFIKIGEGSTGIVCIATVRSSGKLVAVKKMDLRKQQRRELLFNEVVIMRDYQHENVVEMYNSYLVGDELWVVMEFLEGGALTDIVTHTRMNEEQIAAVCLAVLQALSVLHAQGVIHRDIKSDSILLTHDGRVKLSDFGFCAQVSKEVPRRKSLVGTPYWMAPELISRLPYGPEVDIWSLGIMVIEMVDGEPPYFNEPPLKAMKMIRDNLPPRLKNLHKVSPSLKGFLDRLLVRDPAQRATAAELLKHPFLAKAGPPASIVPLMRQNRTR
The nature of series [1]: Intrinsic clearance in mouse liver microsomes. The conditions noted are these: mouse hepatic microsomes, 0.5 μM compound. It is filed as in vitro ADME. On the procedure: Intrinsic clearance experiments: Test compound (0.5 μM) was incubated with female CD1 mouse liver microsomes (Xenotech LLC; 0.5 mg mL^−1 50 mM potassium phosphate buffer, pH 7.4), and the reaction started with the addition of excess NADPH (8 mg mL^−1 50 mM potassium phosphate buffer, pH 7.4). Immediately, at t0, then at 3, 6, 9, 15, and 30 min an aliquot (50 μL) of the incubation mixture was removed and mixed with MeCN (100 μL) to stop the reaction. Internal standard was added to all samples, the samples were centrifuged to sediment precipitated protein, and the plates were then sealed prior to UPLC–MS/MS analysis using a Quattro Premier XE instrument (Waters Corp., USA). XLfit (IDBS, UK) was used to calculate the exponential decay and consequently the rate constant (k) from the ratio of peak area of test compound to internal standard at each time point. The rate of intrinsic clearance [CLint, mL min^−1 (g liver)^−1] of each test compound was then calculated with Equation (3): […]
in which V [mL (mg protein)^−1] is the incubation volume per mg protein added, and microsomal protein yield is taken as 52.5 mg protein per gram of liver. Verapamil (0.5 μM) was used as a positive control to confirm acceptable assay performance.
(Liver microsomes are vesicles of endoplasmic reticulum, rich in cytochrome P450 enzymes.)

The target of a further series is Aurora B (Homo sapiens, UniProt Q96GD4). Nature of the series: Kinase panel: Aurora B. It is filed as biochemical, human/mammalian. The note with it: compound at 10 μM, read-out: % of activity respect of the control. The method, then: as §1
Chain of Aurora B (Q96GD4 whole entry): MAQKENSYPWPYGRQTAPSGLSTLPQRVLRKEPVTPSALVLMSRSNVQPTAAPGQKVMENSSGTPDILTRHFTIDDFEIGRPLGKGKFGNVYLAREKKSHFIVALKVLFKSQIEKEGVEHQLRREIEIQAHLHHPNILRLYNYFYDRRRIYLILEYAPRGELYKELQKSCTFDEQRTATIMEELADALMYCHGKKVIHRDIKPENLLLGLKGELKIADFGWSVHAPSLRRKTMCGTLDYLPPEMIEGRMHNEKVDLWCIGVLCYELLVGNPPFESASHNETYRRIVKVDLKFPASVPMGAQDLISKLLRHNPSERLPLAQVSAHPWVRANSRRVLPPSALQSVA
The target in the next series is T1, TBK1 (DU12569) (Homo sapiens, UniProt Q9UHD2).
T1 sequence (Q9UHD2 1-729): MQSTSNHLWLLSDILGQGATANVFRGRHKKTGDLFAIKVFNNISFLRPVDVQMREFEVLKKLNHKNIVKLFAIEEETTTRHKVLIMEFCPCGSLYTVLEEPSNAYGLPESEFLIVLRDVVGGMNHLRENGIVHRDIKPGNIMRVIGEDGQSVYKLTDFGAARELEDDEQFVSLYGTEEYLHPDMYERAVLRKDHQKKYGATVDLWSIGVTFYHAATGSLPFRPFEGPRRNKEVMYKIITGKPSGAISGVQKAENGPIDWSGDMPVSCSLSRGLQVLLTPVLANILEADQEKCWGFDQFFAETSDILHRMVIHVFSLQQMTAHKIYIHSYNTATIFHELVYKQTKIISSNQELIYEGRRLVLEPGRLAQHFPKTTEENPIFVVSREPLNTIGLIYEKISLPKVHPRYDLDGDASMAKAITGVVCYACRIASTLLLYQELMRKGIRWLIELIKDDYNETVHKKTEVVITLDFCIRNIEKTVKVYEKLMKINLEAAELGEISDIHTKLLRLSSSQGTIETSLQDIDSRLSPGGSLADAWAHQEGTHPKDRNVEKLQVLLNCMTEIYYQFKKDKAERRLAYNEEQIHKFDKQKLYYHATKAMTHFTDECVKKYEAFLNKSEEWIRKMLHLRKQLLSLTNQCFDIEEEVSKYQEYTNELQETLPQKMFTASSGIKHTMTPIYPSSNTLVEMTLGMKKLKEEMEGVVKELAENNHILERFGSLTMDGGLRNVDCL
Nature of the series: Kinase panel: TBK1 (DU12569). The note with it: compound at 10 μM, read-out: % of activity respect of the control. It is filed as biochemical, human/mammalian. On the procedure:
as §1

For a further series, the target named is PLK1 (Okadaic Acid) (Homo sapiens, UniProt P53350). Nature of the series: Kinase panel: PLK1 (Okadaic Acid). It is filed as biochemical, human/mammalian. The conditions noted are these: compound at 10 μM, read-out: % of activity respect of the control. On the procedure:
as §1

The target in a further series is RSK1 (Homo sapiens, UniProt Q15418). Put plainly: Kinase panel: RSK1. It is filed as biochemical, human/mammalian. The conditions noted are these: compound at 10 μM, read-out: % of activity respect of the control. The method, then: as §1
Chain of RSK1 (Q15418 whole entry): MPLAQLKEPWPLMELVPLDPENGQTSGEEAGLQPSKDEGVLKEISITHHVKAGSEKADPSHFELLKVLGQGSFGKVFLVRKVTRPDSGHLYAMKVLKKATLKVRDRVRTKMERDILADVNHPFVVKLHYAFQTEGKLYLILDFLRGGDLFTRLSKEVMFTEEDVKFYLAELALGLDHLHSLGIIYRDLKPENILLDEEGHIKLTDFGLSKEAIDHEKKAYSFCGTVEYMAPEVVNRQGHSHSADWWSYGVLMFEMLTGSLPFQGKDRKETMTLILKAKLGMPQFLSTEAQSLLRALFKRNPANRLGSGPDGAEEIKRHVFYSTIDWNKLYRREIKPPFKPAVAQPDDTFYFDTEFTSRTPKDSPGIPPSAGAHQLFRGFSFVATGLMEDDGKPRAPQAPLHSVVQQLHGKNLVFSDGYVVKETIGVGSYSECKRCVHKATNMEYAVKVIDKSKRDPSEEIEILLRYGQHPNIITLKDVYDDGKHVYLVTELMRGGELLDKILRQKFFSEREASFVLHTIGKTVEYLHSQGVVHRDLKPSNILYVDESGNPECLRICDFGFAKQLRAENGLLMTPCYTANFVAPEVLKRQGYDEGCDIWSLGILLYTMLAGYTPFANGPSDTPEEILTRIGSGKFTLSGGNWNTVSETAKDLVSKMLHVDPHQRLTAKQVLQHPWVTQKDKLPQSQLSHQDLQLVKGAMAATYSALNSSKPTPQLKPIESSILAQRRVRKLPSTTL
In another series the target is EPH A2 (Homo sapiens, UniProt P29317). Nature of the series: Kinase panel: EPH A2. It is filed as biochemical, human/mammalian. The note with it: compound at 10 μM, read-out: % of activity respect of the control. On the procedure: as §1
Chain of EPH A2 (P29317 24-976): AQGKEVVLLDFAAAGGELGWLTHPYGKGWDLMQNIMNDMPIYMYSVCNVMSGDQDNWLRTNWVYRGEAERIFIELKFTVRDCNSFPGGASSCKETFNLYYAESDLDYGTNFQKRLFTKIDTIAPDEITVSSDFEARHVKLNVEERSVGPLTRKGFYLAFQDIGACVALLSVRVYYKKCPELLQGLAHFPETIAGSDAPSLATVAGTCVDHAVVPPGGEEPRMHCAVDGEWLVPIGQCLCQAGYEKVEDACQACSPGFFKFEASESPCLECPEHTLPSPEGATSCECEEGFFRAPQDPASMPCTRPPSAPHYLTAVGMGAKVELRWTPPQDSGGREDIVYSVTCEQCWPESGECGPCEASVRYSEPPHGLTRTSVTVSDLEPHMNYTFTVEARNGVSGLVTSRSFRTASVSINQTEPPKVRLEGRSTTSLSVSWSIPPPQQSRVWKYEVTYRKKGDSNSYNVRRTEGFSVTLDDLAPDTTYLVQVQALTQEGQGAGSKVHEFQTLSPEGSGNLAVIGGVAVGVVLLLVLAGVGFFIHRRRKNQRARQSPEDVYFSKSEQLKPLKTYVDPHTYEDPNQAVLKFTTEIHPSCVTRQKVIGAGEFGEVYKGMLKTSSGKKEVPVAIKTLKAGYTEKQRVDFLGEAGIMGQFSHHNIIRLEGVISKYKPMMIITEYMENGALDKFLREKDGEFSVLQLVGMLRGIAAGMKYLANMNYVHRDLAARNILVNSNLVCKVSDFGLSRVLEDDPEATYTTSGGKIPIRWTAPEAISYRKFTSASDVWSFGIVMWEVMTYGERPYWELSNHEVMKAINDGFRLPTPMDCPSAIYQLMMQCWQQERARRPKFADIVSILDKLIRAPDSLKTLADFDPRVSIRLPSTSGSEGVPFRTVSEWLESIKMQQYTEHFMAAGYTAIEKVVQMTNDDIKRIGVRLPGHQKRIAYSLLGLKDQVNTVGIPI
For the next series, the target named is MNK2 (Homo sapiens, UniProt Q9HBH9). Nature of the series: Kinase panel: MNK2. The conditions noted are these: compound at 10 μM, read-out: % of activity respect of the control. It is filed as biochemical, human/mammalian. On the procedure: as §1
In a further series the target is PKCa (Homo sapiens, UniProt P17252). Put plainly: Kinase panel: PKCa. The series is classed as biochemical, human/mammalian. The conditions noted are these: compound at 10 μM, read-out: % of activity respect of the control. The method, then: as §1
The target in another series is IR-HIS (Homo sapiens, UniProt P06213). Nature of the series: Kinase panel: IR-HIS. The series is classed as biochemical, human/mammalian. The conditions noted are these: compound at 10 μM, read-out: % of activity respect of the control. On the procedure: as §1
The target of a further series is JNK1 (Homo sapiens, UniProt P45983). Nature of the series: Kinase panel: JNK1. It is filed as biochemical, human/mammalian. The note with it: compound at 10 μM, read-out: % of activity respect of the control. The method, then:
as §1

Chain of JNK1 (P45983 whole entry): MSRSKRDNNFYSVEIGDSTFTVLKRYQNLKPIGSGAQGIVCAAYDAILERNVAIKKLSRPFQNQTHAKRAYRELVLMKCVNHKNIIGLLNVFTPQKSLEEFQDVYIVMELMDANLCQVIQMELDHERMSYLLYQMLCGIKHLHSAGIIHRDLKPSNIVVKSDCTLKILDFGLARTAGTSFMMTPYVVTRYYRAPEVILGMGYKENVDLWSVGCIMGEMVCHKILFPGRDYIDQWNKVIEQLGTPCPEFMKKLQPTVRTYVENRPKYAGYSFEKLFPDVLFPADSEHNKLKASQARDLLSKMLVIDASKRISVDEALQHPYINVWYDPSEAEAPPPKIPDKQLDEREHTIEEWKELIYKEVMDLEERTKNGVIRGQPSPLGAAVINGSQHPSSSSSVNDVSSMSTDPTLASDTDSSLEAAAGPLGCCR
Chain of HIPK2 (Q9H2X6 whole entry): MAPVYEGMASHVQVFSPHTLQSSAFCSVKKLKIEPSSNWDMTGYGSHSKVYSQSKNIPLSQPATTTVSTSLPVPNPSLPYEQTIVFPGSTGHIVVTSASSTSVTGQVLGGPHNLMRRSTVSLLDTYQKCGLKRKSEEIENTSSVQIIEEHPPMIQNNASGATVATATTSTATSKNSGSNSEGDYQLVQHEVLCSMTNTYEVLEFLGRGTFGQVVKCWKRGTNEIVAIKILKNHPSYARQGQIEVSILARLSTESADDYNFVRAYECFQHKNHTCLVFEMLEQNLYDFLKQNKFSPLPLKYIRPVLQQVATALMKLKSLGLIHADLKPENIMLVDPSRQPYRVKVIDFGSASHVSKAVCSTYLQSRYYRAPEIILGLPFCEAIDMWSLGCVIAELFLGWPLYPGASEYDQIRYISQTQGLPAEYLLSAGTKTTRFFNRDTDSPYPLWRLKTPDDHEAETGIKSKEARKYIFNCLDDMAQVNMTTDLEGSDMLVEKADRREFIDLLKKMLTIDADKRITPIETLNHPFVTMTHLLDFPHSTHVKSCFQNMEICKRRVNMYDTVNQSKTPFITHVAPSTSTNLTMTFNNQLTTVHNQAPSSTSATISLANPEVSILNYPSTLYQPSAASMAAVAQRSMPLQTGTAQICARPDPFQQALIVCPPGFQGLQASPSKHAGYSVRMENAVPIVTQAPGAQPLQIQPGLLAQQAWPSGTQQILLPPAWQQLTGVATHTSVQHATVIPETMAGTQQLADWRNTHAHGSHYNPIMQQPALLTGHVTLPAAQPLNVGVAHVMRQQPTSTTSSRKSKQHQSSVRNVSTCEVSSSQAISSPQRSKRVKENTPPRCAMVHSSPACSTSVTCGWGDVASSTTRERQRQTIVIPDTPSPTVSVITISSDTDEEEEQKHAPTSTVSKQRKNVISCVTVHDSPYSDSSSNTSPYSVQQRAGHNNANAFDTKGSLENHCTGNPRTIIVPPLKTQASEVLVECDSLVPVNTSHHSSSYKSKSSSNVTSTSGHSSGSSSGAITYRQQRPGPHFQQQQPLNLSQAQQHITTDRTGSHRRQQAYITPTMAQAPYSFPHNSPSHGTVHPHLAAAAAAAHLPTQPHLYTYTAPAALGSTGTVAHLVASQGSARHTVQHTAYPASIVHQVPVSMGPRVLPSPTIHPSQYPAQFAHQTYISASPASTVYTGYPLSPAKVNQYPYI

In the case of `CC(c1ccccc1)n1c(=O)[nH]c2ncc(-c3ccc(F)cc3)nc21` (stereo not shown) [Compound 1], the remaining activity at 10 µM was 101% on HIPK2; 88% at p38a MAPK; 111% on PLK1; 101% at PAK4; 117% on Aurora B; 95% at TBK1 (DU12569). The remaining activity at 10 µM on PLK1 (Okadaic Acid) is 96%; on RSK1, 96%; at EPH A2, 105%; on MNK2 it was 106%; at PKCa, 101%; at IR-HIS, 88%. Besides, the remaining activity at 10 µM on JNK1 is 95%. Further, the “% of activity respect of the control” value in the series with PHK is 103%. Also, the CLint in series [1] was under 0.5 mL/min/g.
For `O=c1[nH]c2ncc(-c3ccc(F)cc3)nc2n1CC1CC1` [Compound 10], the remaining activity at 10 µM amounted to 69% on HIPK2; 87% on p38a MAPK; 102% on PLK1; 106% on PAK4; 93% on Aurora B; 86% at TBK1 (DU12569). The remaining activity at 10 µM stood at 109% at PLK1 (Okadaic Acid); 85% at RSK1; 96% on EPH A2; 99% at MNK2; 106% on PKCa; 109% on IR-HIS. Further, on JNK1, the remaining activity at 10 µM came out at 100%. In the series with PHK, the “% of activity respect of the control” value stood at 97%.
On to `O=c1[nH]c2ncc(-c3ccc(F)cc3)nc2n1C1CCCCC1` [Compound 12, 1-Cyclohexyl-6-(4-fluorophenyl)-1H-imidazo[4,5-b]pyrazin-2(3H)-one], for which the remaining activity at 10 µM was determined as 97% at HIPK2; 86% on p38a MAPK; 117% on PLK1; 103% at PAK4; 85% at Aurora B; 90% at TBK1 (DU12569). The remaining activity at 10 µM on PLK1 (Okadaic Acid) is 96%; on RSK1 it was 89%; at EPH A2, 97%; at MNK2 it was 103%; on PKCa it was 94%; at IR-HIS, 119%. For the same molecule, the remaining activity at 10 µM on JNK1 is 95%. Moreover, the “% of activity respect of the control” value in the series on PHK was found to be 110%. This molecule also gave a CLint in series [1] of 0.7 mL/min/g.
Regarding `C[C@H](c1ccccc1)n1c(=O)[nH]c2ncc(-c3ccccc3)nc21` [Compound 14, (R)-6-Phenyl-1-(1-phenylethyl)-1H-imidazo[4,5-b]pyrazin-2(3H)-one], the remaining activity at 10 µM came to 80% on HIPK2; 88% on p38a MAPK; 104% on PLK1; 86% at PAK4; 99% on Aurora B; 78% at TBK1 (DU12569). For the same molecule, the remaining activity at 10 µM was determined as 89% at RSK1; 89% at EPH A2; 97% at MNK2; 98% on PKCa; 93% on IR-HIS; 97% at JNK1. The “% of activity respect of the control” value in the series with PHK is given as 94%.
The molecule `O=c1[nH]c2ncc(-c3ccccc3CO)nc2n1C1CCCCC1` [Compound 28] displayed a CLint in series [1] of 2.4 mL/min/g.
